# Experimental data as given in patent US20230026163A1, “ANTICANCER COMPOUND AND MEDICAL USE THEREOF” (ASCENTAWITS PHARMACEUTICALS, LTD., priority 2019, published 2023).
# Key:
# [1] = tested on: H460 non-small cell lung cancer; test: Cytotoxicity test of human tumor cell line in vitro (CTG, 72 hours); type: cell-based; details: for IC50: Homo sapiens, NCI-H460, H460, 72 hours exposure; for Anticancer activity compared to the compound of control 2: H460
# Protocol: IC50 values were obtained by the following methods. The cancer cells were exposed to various concentrations of compounds for 72 hours. Following by washing steps, fresh medium was added to allow the growth of the cancer cells. The cancer cells were stained to obtain cell viability. Then, comparisons were made with the medium-only control.
# Specifically, the exponentially growing cells were seeded in 96-well plates at a density of 2×10^3 cells/well, and 100 μL/well. The cells were incubated for 24 hours at 37° C., in 5% CO2, in 95% air, and 100% relative humidity. Next, 99 μL of culture medium was added. The compounds were dissolved in 100% DMSO at 200 times the desired final test concentration. Upon addition of compounds, the compounds were further diluted to 4 times the desired final concentration with a complete medium. Aliquots of 1 μL of compounds at specific concentration were added to the micro-wells containing 199 μL of medium to obtain the final compound concentrations as reported. After the compounds were added, the plates were incubated for an addition 72 hours at 37° C., in 5% CO2, in 95% air, and 100% relative humidity.
# The plates to be test containing the cells were equilibrated at room temperature for 30 minutes, and 100 μL of medium per well was discarded. 100 μL of CTG reagent (CelltiterGlo Kit) was added to each well. The plates were placed in a fast-shaker to shake for 2 minutes, and placed at room temperature for 30 minutes in the dark. Chemoluminescence signal values were read with Envision instrument.
# P-glycoprotein = P-glycoprotein (Homo sapiens, UniProt P08183); test: in vitro; details: for Papp A→B at 2 h / Papp B→A at 2 h / recovery at 2 h: dog; for Papp A→B at 2 h / Papp B→A at 2 h: MDCK-MDR1; for P-glycoprotein substrate (experimental conclusion): with vs without Verapamil
# Chain of P-glycoprotein (P08183 whole entry): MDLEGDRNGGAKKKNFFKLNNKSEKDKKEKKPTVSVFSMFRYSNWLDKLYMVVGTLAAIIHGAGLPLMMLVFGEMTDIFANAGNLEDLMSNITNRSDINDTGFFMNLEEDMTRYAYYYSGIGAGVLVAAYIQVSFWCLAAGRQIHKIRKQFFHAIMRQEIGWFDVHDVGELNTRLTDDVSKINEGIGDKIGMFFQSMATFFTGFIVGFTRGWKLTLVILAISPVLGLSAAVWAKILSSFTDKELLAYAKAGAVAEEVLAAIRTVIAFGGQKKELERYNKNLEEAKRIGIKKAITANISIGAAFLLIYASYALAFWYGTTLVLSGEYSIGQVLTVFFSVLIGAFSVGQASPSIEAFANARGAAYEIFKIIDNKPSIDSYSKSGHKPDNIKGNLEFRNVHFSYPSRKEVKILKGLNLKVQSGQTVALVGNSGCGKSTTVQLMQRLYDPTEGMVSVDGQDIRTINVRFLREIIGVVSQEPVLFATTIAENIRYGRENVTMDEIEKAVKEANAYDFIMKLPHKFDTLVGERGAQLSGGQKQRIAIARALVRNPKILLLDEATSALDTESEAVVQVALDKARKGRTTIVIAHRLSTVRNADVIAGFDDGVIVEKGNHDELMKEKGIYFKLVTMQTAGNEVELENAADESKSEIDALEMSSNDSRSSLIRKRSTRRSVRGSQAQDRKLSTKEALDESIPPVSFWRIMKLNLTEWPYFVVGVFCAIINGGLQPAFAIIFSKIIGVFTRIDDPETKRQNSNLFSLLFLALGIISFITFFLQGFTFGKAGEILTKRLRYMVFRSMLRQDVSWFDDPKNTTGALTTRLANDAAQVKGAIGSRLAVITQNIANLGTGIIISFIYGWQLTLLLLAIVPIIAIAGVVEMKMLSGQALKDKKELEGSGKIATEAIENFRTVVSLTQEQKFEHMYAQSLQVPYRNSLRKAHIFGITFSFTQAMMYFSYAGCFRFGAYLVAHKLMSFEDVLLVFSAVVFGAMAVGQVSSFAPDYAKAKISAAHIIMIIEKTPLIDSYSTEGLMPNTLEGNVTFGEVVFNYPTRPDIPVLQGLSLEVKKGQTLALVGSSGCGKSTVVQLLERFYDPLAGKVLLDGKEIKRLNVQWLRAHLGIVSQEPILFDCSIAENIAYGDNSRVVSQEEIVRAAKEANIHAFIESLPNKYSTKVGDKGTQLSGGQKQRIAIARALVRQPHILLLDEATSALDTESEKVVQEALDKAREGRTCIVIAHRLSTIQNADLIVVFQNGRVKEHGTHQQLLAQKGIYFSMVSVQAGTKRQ
# Protocol: MDCKII-MDR1 cells were incubated in cell culture flasks. The incubator was set at 37° C., 5% CO2, and a guaranteed relative humidity of 95%. When the cells reached 70 to 90% confluence, the cells may be seeded to transwells.
# 50 μL of the cell suspensions were added to the apical chambers of each well of the 96-well transwells at a final seeding density of 5.45×10^5 cells/cm^2.
# MDCKII-MDR1 cells may be fully confluent and differentiated after 4 to 8 days of incubation. At this time, the cells may be applied to penetration test. The monolayer membrane resistance was measured with a resistance meter (Millipore), and the resistance per well was recorded. After the test, the transwells were returned to the incubator.
# The transwells with MDCKII-MDR1 cells were taken from the incubator. The cell monolayers were rinsed twice with buffer and incubated at 37° C. for 30 minutes.
# The rate of the compounds from an apical end to a basolateral end was determined. 75 μL of the buffer containing the test sample was added to each well of the apical chambers (apical end), and 235 μL of the buffer was added to each well of the basolateral chambers (basolateral end).
# The rate of the compounds transporting from the basolateral end to the apical end was determined. 75 μL of the buffer was added to the apical chambers (apical end), and 235 μL of the buffer containing the test sample was added to the basolateral chamber (basolateral end).
# After the apical chambers and the basolateral chambers were combined respectively, the transwells were incubated at 37° C. for 2 hours.
# After incubation, 50 μL of the sample from each well of the apical chambers and the basolateral chambers of the transwells was transferred to new sample tubes respectively. 200 μL of acetonitrile (100 nM of Alprazolam, 200 nM of Labetalol, 200 nM of caffeine, and 2 μM of Ketoprofen) as an internal standard was added to the sample tubes, vortexed for 10 minutes, and centrifuged at 3220 g for 30 minutes. 100 μL of the supernatant was taken and diluted with an equal volume of water for LC-MS/MS analysis. Each sample was incubated in triplicate.
# Peak-areas were calculated from ion chromatography results. The apparent permeability coefficient (Papp, unit: cm/s×10-6) of the compounds was calculated by the following formula.
# In the formula, VA was the volume of the solution at the acceptor end (Ap→B1 was 0.235 mL, and B1→Ap was 0.075 mL), Area was the membrane area (0.143 cm^2) of 96-well transwell, time was the incubation time (unit: s), [drug]acceptor referred to the drug concentration of the acceptor end after incubation, and [drug]initial,donor referred to the initial concentration of the donor end before incubation.
# Efflux ratio was calculated with the following formula.
# In the formula, Papp(B_A) was the apparent permeability coefficient from the basolateral end to the apical end, and Papp(A-B) was the apparent permeability coefficient from the apical end to the basolateral end.
# The recovery rate was calculated with the following formula.
# In the formula, VA was the solution volume of the acceptor end (unit: mL), VD was the solution volume of the donor end (unit: mL), [drug]acceptor referred to the drug concentration of the acceptor end after incubation, and [drug]initial,donor referred to the initial concentration of the donor end before incubation.
# [2] = Maximal tolerance dose (MTD) experiment; type: in vivo, ICR mice
# Protocol: 18 ICR mice, 9 females/9 males, were selected for the experiment. According to gender and body weight, the mice were randomly divided into a 10 mg/kg group, a 20 mg/kg group, and a 40 mg/kg group of the S-configuration of compound 01, with 3 females/3 males in each group. By intravenous injection, the 10 mg/kg group of the S-configuration of compound 01 was administered with 1 mg/ml of the administration concentration, 10 ml/kg of the administration volume, and 10 mg/kg of the dose. The 20 mg/kg group containing the S-configuration of compound 01 was administered with 2 mg/ml of the administration concentration, 10 ml/kg of the administration volume, and 20 mg/kg of the dose. The 40 mg/kg group containing the S-configuration of compound 01 was administered with 4 mg/ml of the administration concentration, 10 ml/kg of the administration volume, and 40 mg/kg of the dose. The mice was administered once a day for 5 consecutive days, and recovered for 2 weeks after the last administration. The mice were closely observed for 2 hours after administration of the daily drug. The mice were observed twice a day in the morning and afternoon on the non-administration day. During the experiment, body weight and food intake were measured twice a week. The dead animals and all the survival animals were subjected to gross necropsy on the 14th day after the last administration. The diseased organic were grossly necropsied for histopathological examination.
# 18 ICR mice, 9 females/9 males, were selected for the experiment. According to gender and body weight, the mice were randomly divided into a 10 mg/kg group, a 20 mg/kg group, and a 40 mg/kg group of the R-configuration of compound 01, with 3 females/3 males in each group. By intravenous injection, the 10 mg/kg group of the R-configuration of compound 01 was administered with 1 mg/ml of the administration concentration, 10 ml/kg of the administration volume, and 10 mg/kg of the dose. The 20 mg/kg group of the R-configuration of compound 01 was administered with 2 mg/ml of the administration concentration, 10 ml/kg of the administration volume, and 20 mg/kg of the dose. The 40 mg/kg group of the R-configuration of compound 01 was administered with 4 mg/ml of the administration concentration, 10 ml/kg of the administration volume, and 40 mg/kg of the dose. The mice was administered once a day for 5 consecutive days, and recovered for 1 week after the last administration. […] To find the maximum tolerated dose, a second cycle of dosing was required. The doses were adjusted and administered for 5 consecutive days.
# The mice were closely observed for 2 hours after administration of the daily drug. The mice were observed twice a day in the morning and afternoon on the non-administration day. During the experiment, body weight and food intake were measured twice a week. The dead animals and all the survival animals were subjected to gross necropsy on the 14th day after the last administration. The diseased organic were grossly necropsied for histopathological examination.
# [3] = MDCK-MDR1, Recovery (%) AP-BL, Verapamil 0 μM
# [4] = MDCK-MDR1, Recovery (%) AP-BL, Verapamil 100 μM
# [5] = MDCK-MDR1, Recovery (%) BL-AP, Verapamil 0 μM
# [6] = MDCK-MDR1, Recovery (%) BL-AP, Verapamil 100 μM
smiles,measurement,setting,value
O=[N+]([O-])c1ccc(COP(=O)(N2CC2)N2CC2)c2cccnc12 [Compound 22],IC50,[1],200 nM
O=[N+]([O-])c1ccc(C(OP(=O)(N2CC2)N2CC2)C(F)(F)F)c2ccncc12 (stereo not shown) [Compound 18],IC50,[1],7.88 nM
O=[N+]([O-])c1cccc2ccc(C(OP(=O)(N3CC3)N3CC3)C(F)(F)F)cc12 (stereo not shown) [Compound 08],IC50,[1],3840 nM
CC(OP(=O)(N1CC1)N1CC1)c1ccc2ccccc2c1[N+](=O)[O-] (stereo not shown) [Compound 04],Anticancer activity compared to the compound of control 2,[1],obviously worse
same,IC50,[1],9280 nM
O=[N+]([O-])c1cccc2c(C(OP(=O)(N3CC3)N3CC3)C(F)(F)F)cccc12 (stereo not shown) [Compound 11],IC50,[1],7650 nM
"COCCc1ccc(OCC(O)CNC(C)C)cc1 (stereo not shown) [Metoprolol, reference compound]",Papp A→B at 2 h,P-glycoprotein,26 ×10⁻⁶ cm/s
same,Papp B→A at 2 h,P-glycoprotein,18.9 ×10⁻⁶ cm/s
O=[N+]([O-])c1ccc([C@H](OP(=O)(N2CC2)N2CC2)C(F)(F)F)c2ccccc12 [S-configuration of compound 01],Clinical symptoms after administration,[2]; 10 mg/kg group and 20 mg/kg group,in good condition
same,Clinical symptoms after administration,[2]; 40 mg/kg group,"unsteady gait, deepened breathing, accelerated breathing, and decreased spontaneous activity"
same,Animals died,"[2]; 40 mg/kg group, i.v., 5 consecutive days",3 of the 6
same,Effect on animal body weight,[2]; after intravenous injection in mice,increased slowly
same,Gross necropsy of the surviving animals,[2]; after the recovery period,on obvious gross pathological changes
same,MTD at 5 days,"[2]; both sexes, ICR, mouse, in vivo, iv, ICR mice, intravenous injection, once a day for 5 consecutive days, read-out: Maximum tolerated dose / MTD result",20 mg/kg
same,Average food intake vs normal mice,[2]; each administration group,no significant difference
O=[N+]([O-])c1cccc2ccc(COP(=O)(N3CC3)N3CC3)cc12 [Compound 06],IC50,[1],172 nM
O=[N+]([O-])c1ccc(C(OP(=O)(N2CC2)N2CC2)C(F)(F)F)c2cccnc12 (stereo not shown) [Compound 19],IC50,[1],311 nM
CC(OP(=O)(N1CC1)N1CC1)c1ccc([N+](=O)[O-])c2cccnc12 (stereo not shown) [Compound 12],IC50,[1],35.2 nM
O=[N+]([O-])c1ccc(COP(=O)(N2CC2)N2CC2)c2ncccc12 [Compound 20],Papp A→B at 2 h,P-glycoprotein,33.7 ×10⁻⁶ cm/s
same,Papp B→A at 2 h,P-glycoprotein,21.8 ×10⁻⁶ cm/s
same,recovery at 2 h,P-glycoprotein; [3],92.7%
same,recovery at 2 h,P-glycoprotein; [4],87.6%
same,recovery at 2 h,P-glycoprotein; [5],96.3%
same,recovery at 2 h,P-glycoprotein; [6],96.2%
same,P-glycoprotein substrate (experimental conclusion),P-glycoprotein,not P-glycoprotein substrates
same,IC50,[1],41.5 nM
O=[N+]([O-])c1c(C(OP(=O)(N2CC2)N2CC2)C(F)(F)F)ccc2ccccc12 (stereo not shown) [Compound 05],Anticancer activity compared to the compound of control 2,[1],obviously worse
same,IC50,[1],9020 nM
O=[N+]([O-])c1ccc(C(OP(=O)(N2CC2)N2CC2)C(F)(F)F)c2ncccc12 (stereo not shown) [Compound 16],IC50,[1],34.9 nM
CC(OP(=O)(N1CC1)N1CC1)c1cccc2c([N+](=O)[O-])cccc12 (stereo not shown) [Compound 10],IC50,[1],692 nM
CC(OP(=O)(N1CC1)N1CC1)c1ccc([N+](=O)[O-])c2ncccc12 (stereo not shown) [Compound 15],IC50,[1],145 nM
O=[N+]([O-])c1ccc(COP(=O)(N2CC2)N2CC2)c2ccncc12 [Compound 21],IC50,[1],7.17 nM
O=[N+]([O-])c1cc(COP(=O)(N2CC2)N2CC2)cc2ccccc12 [Compound 25],IC50,[1],106 nM
CC(OP(=O)(N1CC1)N1CC1)c1ccc([N+](=O)[O-])c2ccncc12 (stereo not shown) [Compound 13],IC50,[1],12.9 nM
O=[N+]([O-])c1cccc2c(COP(=O)(N3CC3)N3CC3)cccc12 [Compound 09],IC50,[1],1650 nM
CC(OP(=O)(N1CC1)N1CC1)c1ccc([N+](=O)[O-])c2cnccc12 (stereo not shown) [Compound 14],Papp A→B at 2 h,P-glycoprotein,12.9 ×10⁻⁶ cm/s
same,Papp B→A at 2 h,P-glycoprotein,26.3 ×10⁻⁶ cm/s
same,recovery at 2 h,P-glycoprotein; [3],91.1%
same,recovery at 2 h,P-glycoprotein; [4],80.8%
same,recovery at 2 h,P-glycoprotein; [5],104%
same,recovery at 2 h,P-glycoprotein; [6],90.8%
same,P-glycoprotein substrate (experimental conclusion),P-glycoprotein,not P-glycoprotein substrates
same,IC50,[1],3.82 nM
CC(OP(=O)(N1CC1)N1CC1)c1ccc2cccc([N+](=O)[O-])c2c1 (stereo not shown) [Compound 07],IC50,[1],168 nM
O=[N+]([O-])c1ccc(COP(=O)(N2CC2)N2CC2)c2ccccc12 [Compound 02],IC50,[1],755 nM
O=[N+]([O-])c1cccc2cc(COP(=O)(N3CC3)N3CC3)ccc12 [Compound 24],IC50,[1],478 nM
